Source: patent US4845123A, “Reduction in vivo of the inappropriate levels of endogenous and environmental-derived compounds by sustained-release inhibitors of β- g” (priority 1985, dated 1989)
Values joined by “and” are separate entries in the source; they are usually repeats but may differ in a detail not shown here. Equal values may be shown once. “Also recorded” adds a separate entry of the source. Read-outs that look alike come from different tables or passages of the source.

Experiments:
serum β-glucuronidase = target: T1, serum β-glucuronidase (Rattus norvegicus, UniProt P06760); experiment: in vivo; type: in vivo
T1 sequence (P06760 23-648): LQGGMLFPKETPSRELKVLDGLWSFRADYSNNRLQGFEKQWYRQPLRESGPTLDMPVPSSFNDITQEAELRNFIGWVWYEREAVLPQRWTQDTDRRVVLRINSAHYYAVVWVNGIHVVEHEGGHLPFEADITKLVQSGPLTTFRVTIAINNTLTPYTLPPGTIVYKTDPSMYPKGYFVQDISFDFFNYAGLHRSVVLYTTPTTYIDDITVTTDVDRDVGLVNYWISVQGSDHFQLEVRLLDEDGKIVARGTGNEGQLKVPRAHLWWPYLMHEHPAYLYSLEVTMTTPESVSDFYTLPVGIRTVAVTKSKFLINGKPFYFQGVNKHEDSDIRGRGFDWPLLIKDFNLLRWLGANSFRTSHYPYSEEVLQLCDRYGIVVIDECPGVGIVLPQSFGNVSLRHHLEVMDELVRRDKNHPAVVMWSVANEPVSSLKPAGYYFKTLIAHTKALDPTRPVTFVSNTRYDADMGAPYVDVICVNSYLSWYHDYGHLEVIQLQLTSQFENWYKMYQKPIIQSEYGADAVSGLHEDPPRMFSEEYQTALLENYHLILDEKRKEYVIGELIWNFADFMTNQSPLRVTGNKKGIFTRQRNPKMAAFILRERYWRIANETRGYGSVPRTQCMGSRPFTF
Procedure: GL was synthesized and microencapsulated to give sustained-release GL (EGL), by an established procedure used to microencapsulate ascorbic acid, as reported in Samejima, M. et al., Chem. Pharm. Bull., (Tokyo) 1982, 30:2894-2899. In this procedure, the GL as a fine powder is added to a stirred mixture of cyclohexane, polyisobutylene as coacervation-inducing agent and ethylcellulose as wall-forming material. The addition of GL is at 78° C., then phase separation is induced by lowering the temperature first to 40° C., then to 25° C. The microcapsules, which have thick walls, are washed with cyclohexane and dried. […] DAGDL, calcium D-glucarate (CGT), and potassium hydrogen D-glucarate (PGT) were synthesized. For comparison of efficacy of the inhibitors, 1,5 mmoles/kg (GL, EGL or DAGDL) or 4.5 mmoles/kg (CGT or PGT) of the inhibitor in 1.0 ml of sesame oil or vehicle only (controls) was administered to rats by stomach tube at zero time. Blood samples were obtained from different rats by cardiac puncture under ether anesthesia. The serum was prepared and assayed for β-glucuronidase activity using a commerical diagnostic kit sold by Sigma Chemical Company, St. Louis, MO. The assay is based on the hydrolysis of phenolphthalein-glucuronide and quantitation of phenolphthalein in alkaline medium at […]. For tests of anti-carcinogencity, the inhibitors were administered by stomach tube in 1.0 ml of sesame oil 30 minutes before and again at 2.5 hours after the carcinogen, for DAGDL, or 3 hours and 30 minutes before the carcinogen, for EGL, CGT, and PGT. The controls received sesame oil only by stomach tube.
At the time periods indicated above blood samples were obtained from rats under ether aneathesia by cardiac puncture, the serum was then prepared and assayed for β-glucuronidase activity using a commercial diagnostic kit sold by Sigma Chem. Co., St. Louis, MO.
For the inhibition of the initiation stage, CGT was given by gavage in two doses (4.5 mmoles/kg/dose) at 3 hours and again at 0.5 hours before carcinogen administration. […] The concentrations of CGT were incorporated into the powdered chow diet. The blood samples were obtained 10 days after the initiation of the CGT feeding.
DAGDL or GL (1.5 mmol/kg) in 1.0 ml of sesame oil, or vehicle only (controls) was administered to rats by stomach tube at zero time. […] The serum was prepared and assayed for β-glucuronidase activity using a commercial diagnostic kit sold by Sigma Chemical Company, St. Louis, MO. The assay is based on the hydrolysis of phenolphthalein-glucuronide and quantitation of phenolphtalein in alkaline medium at 550 nm.

60 kd oncofetal protein = experiment: effect of β-glucuronidase inhibitors on carcinogen induction of the 60 kd factor in plasma (cell-free RNA transport assay); type: in vivo, rat
[1] = From the text: In the long term feeding experiments in which CGT intake was over an extended period of time, at the termination of the experiment the following organs were examined macroscopically and weighed: liver, kidneys, adrenals.
The adrenals were slightly (ca 20%) smaller by weight in the group receiving 10% CGT supplemented chow.

[2] = system: Estrogen and Androgen Levels
[3] = system: DMBA-induced mammary tumors; experiment: DMBA-induced mammary tumorigenesis, initiation, promotion and tumor regression; type: in vivo, rat
Procedure: Fifty day old female Sprague Dawley rats were utilized in these experiments. For induction of mammary tumors the rats received a single dose of 130 mg/kg of DMBA in sesame oil by gavage. Animals pretreated with CGT received 4.5 mmoles/kg of CGT in sesame oil at 3 hours and again at 0.5 hours before administration of the carcinogen. This protocol tests the inhibitory effect of CGT on the initiation phase. Alternatively, the rats were fed a standard chow diet supplemented with 10% CGT (w/w). To evaluate the effect of CGT on the promotion phase the rats were changed from the chow diet to the CGT supplemented diet two weeks after treatment with DMBA. One mole of glucarate is converted to approximately one-third of a mole of GL in an equilibrated aqueous solution.
The mammary tumors were measured with micrometer calipers. Two measurements were taken, the longest dimension and dimension at right angles to this parameter.
At this time, the rats were transferred from a chow diet to a chow diet supplemented with 10% CGT. This diet was continued until the termination of the experiment. […] Three groups each, with eighteen 50 day old rats, were given intragastrically a single dose of 20 mg of DMBA in 1.0 ml of sesame oil. One group ( -- ) received 4.5 mmoles/kg of CGT by stomach tube at 3 hours and again at 0.5 hours before DMBA. A second (control) group (.circle.O--O.circle.) received vehicle (i.e. sesame oil) only at the same two time periods. Both of these groups were then put on regular chow diet.

[4] = second dose of DAGDL 3 hours after the initial dose, 2.5 hours after carcinogen
[5] = carcinogen 7,12-Dimethylbenz[a]anthracene, 21 days post-treatment
[6] = +DAGDL (1.5% DAGDL diet), female Sprague Dawley rats
[7] = +DAGDL (1.5% DAGDL diet), male Sprague Dawley rats
[8] = +CGT, 50 day old Sprague Dawley female rats

CC(=O)O[C@@H]1C(=O)O[C@H]2[C@@H]1OC(=O)[C@@H]2OC(C)=O [DAGDL, 2,5-di-O-acetyl-D-glucaro-1,4;6,3-dilactone]
time to 50% inhibition of serum β-glucuronidase (serum β-glucuronidase; 1.5 mmol/kg): ≤ 0.5 h
time for which 50% inhibition or greater is maintained (serum β-glucuronidase; 1.5 mmol/kg, single dose): approximately 3 hours
reduction of serum β-glucuronidase activity (serum β-glucuronidase; 1.5 mmoles/kg i.g., assayed 1 hour after administration): 80%
effect of carcinogen co-administration on degree of β-glucuronidase inhibition (serum β-glucuronidase; carcinogen co-administered): not influenced significantly
inhibition at 1500 µmol/kg (serum β-glucuronidase; rat, 1.5 mmol/kg, within 0.5 hour of administration): 50%
duration of approximately 50% inhibition after second dose (serum β-glucuronidase; [4]): up to 6 hours
inhibition of β-glucuronidase after second dose (serum β-glucuronidase; [4]): approximately 50%
time-course of serum β-glucuronidase inhibition (serum β-glucuronidase; single i.g. dose 1.5 mmoles/kg (GL, DAGDL, EGL)): marked and prolonged inhibition; also recorded: more prolonged inhibition
60 kd factor in plasma, MNU with inhibitor (60 kd oncofetal protein; 504 h): 1.2 Units
Percent Inhibition of the induction of the 60 kd factor (60 kd oncofetal protein; carcinogen 2-Acetylaminofluorene, 21 days post-treatment): 66%
Percent Inhibition of the induction of the 60 kd factor (60 kd oncofetal protein; [5]): 77%
Percent Inhibition of the induction of the 60 kd factor (60 kd oncofetal protein; carcinogen Benzo[a]pyrene, 21 days post-treatment): 76%
decrease of adrenal weight ([1]; DAGDL supplemented chow): 20-30%
sex hormone levels ([2]; 1.5% DAGDL diet, male and female rats): reduces sex hormone levels; also recorded: lower steady state level of steroid hormones
17-Ketosteroids (urinary excretion) [2, 6]: 12 μg/100 g body wt × 24 hrs
Estradiol (serum) [2, 6]: 140 pmol/L
17-Ketosteroids (urinary excretion) [2, 7]: 17 μg/100 g body wt × 24 hrs
Testosterone (serum) [2, 7]: 9 nmol/L

O=C([O-])[C@@H](O)[C@@H](O)[C@H](O)[C@@H](O)C(=O)[O-].[Ca+2] [CGT, calcium D-glucarate]
reduction of serum β-glucuronidase activity (serum β-glucuronidase; rat, in vivo): 50% and 80%
reduction of serum β-glucuronidase levels by dietary CGT (serum β-glucuronidase; rat, in vivo): 50%
time-course of serum β-glucuronidase inhibition (serum β-glucuronidase; rat, in vivo): prolonged inhibition
Percent Inhibition of the induction of the 60 kd factor (60 kd oncofetal protein; carcinogen 1,2-Dimethylhydrazine, 21 days post-treatment): 60%
Percent Inhibition of the induction of the 60 kd factor (60 kd oncofetal protein; carcinogen 1-Nitropyrene, 21 days post-treatment): 50%
Percent Inhibition of the induction of the 60 kd factor (60 kd oncofetal protein; carcinogen 2-Naphthylamine, 21 days post-treatment): 49%
Percent Inhibition of the induction of the 60 kd factor (60 kd oncofetal protein; carcinogen 3-Methylcholanthrene, 21 days post-treatment): 43%
Percent Inhibition of the induction of the 60 kd factor (60 kd oncofetal protein; [5]): 83%
Percent Inhibition of the induction of the 60 kd factor (60 kd oncofetal protein; carcinogen N-Nitrosodibutylamine, 21 days post-treatment): 53% and > 50%
Percent Inhibition of the induction of the 60 kd factor (60 kd oncofetal protein; carcinogen N-Nitrosodiethylamine, 21 days post-treatment): 41%
Percent Inhibition of the induction of the 60 kd factor (60 kd oncofetal protein; carcinogen N-Nitrosodimethylamine, 21 days post-treatment): 76%
Percent Inhibition of the induction of the 60 kd factor (60 kd oncofetal protein; carcinogen N-Nitrosoethylurea, 21 days post-treatment): 68%
Percent Inhibition of the induction of the 60 kd factor (60 kd oncofetal protein; carcinogen N-Nitrosomethylurea, 21 days post-treatment): 69%
Percent Inhibition of the induction of the 60 kd factor (60 kd oncofetal protein; carcinogen Safrole, 21 days post-treatment): 45%
Percent Inhibition of the induction of the 60 kd factor (60 kd oncofetal protein; rat, in vivo): 86% and 70%
effect on DMBA-induced tumors which escape the anti-promoter effects ([3]; 10% CGT diet): significant regression
reduction of the overall tumor incidence due to tumor regression ([3]; 10% CGT diet): 14%
effect on promotion phase of DMBA-induced mammary carcinogenesis ([3]; 10% CGT diet from 2 weeks post-DMBA): significantly inhibits the promotion phase
tumor induction as percent of that in the controls ([3]; 10% CGT diet from 2 weeks post-DMBA (promotion phase), by 28 weeks): 30%
Average Tumor Volume ([3]; 10% CGT diet, 16 wks (spread ± 0.57 on separate line)): 2.82 cm^3
Average Tumor Volume ([3]; 10% CGT diet, 20 wks (spread ± 0.76 on separate line)): 2.17 cm^3
Average Tumor Volume ([3]; 10% CGT diet, 24 wks (spread ± 0.87 on separate line)): 1.87 cm^3
Average Tumor Volume ([3]; 10% CGT diet, 28 wks): 1.20 ± 0.82 cm^3
Average Tumor Volume ([3]; 10% CGT diet, 32 wks): 1.02 ± 0.77 cm^3
reduction in percentage of rats with tumors ([3]; 10% CGT diet, average, between 18 and 28 days (so in the source)): 70%
overall tumor incidence ([3]; 10% CGT supplemented diet beginning 2 weeks post-DMBA treatment): 33%
tumors per rat in rats with tumors ([3]; CGT diet supplemented group, essentially all rats with tumors): only one tumor per rat
decrease of adrenal weight ([1]; rat, in vivo): ~20%
food intake and weight-gain compared with chow diet ([1]; rat, in vivo): essentially identical to those on chow diet
liver and kidney weights compared with controls ([1]; rat, in vivo): essentially identical in weight
17-Ketosteroids (urinary excretion) [2, 8]: 13 μg/100 g body wt × 24 hrs
Estradiol (serum) [2, 8]: 39 pg/mL
reduction of serum estradiol level ([2]; CGT diet, female rats): 24%
reduction of urinary 17-ketosteroid level ([2]; CGT diet, female rats): 55%
